Test results as given in PMC4999912, “Anti-Dengue Virus Constituents from Formosan Zoanthid Palythoa mutuki” (Marine Drugs, 2016).
Values after ≈ are worked out from the molar mass of the structure shown.

How the values were obtained:
[1] = tested on: DENV-2; test: Anti-DENV activity assay, DENV RNA level by qRT-PCR in infected Huh-7 cells; type: cell-based, dengue virus 2; settings: for EC50: DENV2, Huh-7 cells, MOI 0.2, treatment 2 h post infection, RNA at 72 h, read-out: EC50, half maximal effective concentration, anti-DENV-2 activity
Protocol: (§1) Huh-7 cells were cultured in Dulbecco’s modified Eagle’s medium (DMEM) containing 10% fetal bovine serum, 1% non-essential amino acids, and 1% antibiotic-antimycotic in a 5% CO2 at 37 °C. Huh-7 cells were seeded at 24-well plate at density 5 × 10^4 cells/well and infected by DENV infection at a multiplicity of infection (MOI) of 0.2 followed by test compounds treatment 2 h post infection. Total cellular RNA were harvested at 72 h post-infection, and DENV RNA level was analyzed using quantitative real-time reverse-transcription polymerase chain reaction (qRT-PCR) with specific primers against DENV NS5 gene. DENV RNA level was normalized by cellular glyceraldehydes-3-phosphate dehydrogenase (gapdh) mRNA level. 2′-C-methylcytidine (2′CMC) served as positive control. DENV of different serotypes (DENV-1: DN8700828; DENV-2: DN454009A; DENV-3: DN8700829A; DENV-4: S9201818) were obtained from the Centers for Disease Control, Department of Health, Taipei, Taiwan.

[2] = tested on: DENV; parameters: method as in PMID 22201648; settings: cited from earlier work
[3] = Cytotoxicity assay (MTS); type: cell-based; settings: human, Huh-7 cells, read-out: CC50, half maximal cytotoxicity concentration
Protocol: Huh-7 cells were seeded onto 96-well plate at a density of 5 × 10^3 cells per well, followed by compound treatment for 72 h. The cell viability was determined using a standard MTS assay (CellTiter 96® Aqueous One Solution Cell Proliferation assay system, Promega, Madison, WI, USA) according to the manufacturer’s instructions.

[4] = tested on: DENV-1; test: Anti-DENV activity assay, DENV RNA level by qRT-PCR in infected Huh-7 cells; type: cell-based; settings: Dengue virus, DENV1, MOI 0.2, 72 h
Protocol: as §1

[5] = tested on: DENV-3; test: as above; type: cell-based; settings: Dengue virus, DENV3, MOI 0.2, 72 h
Protocol: as §1

[6] = tested on: DENV-4; test: as above; type: cell-based; settings: Dengue virus, DENV4, MOI 0.2, 72 h
Protocol: as §1

[7] = tested on: DENV; type: cell-based, dengue virus; settings: 10 μM, TCID50 assay
[8] = target: DENV NS2B/NS3 protease (Dengue virus type 2, UniProt P29990); test: cell-based
Chain of DENV NS2B/NS3 protease (P29990 1476-2093): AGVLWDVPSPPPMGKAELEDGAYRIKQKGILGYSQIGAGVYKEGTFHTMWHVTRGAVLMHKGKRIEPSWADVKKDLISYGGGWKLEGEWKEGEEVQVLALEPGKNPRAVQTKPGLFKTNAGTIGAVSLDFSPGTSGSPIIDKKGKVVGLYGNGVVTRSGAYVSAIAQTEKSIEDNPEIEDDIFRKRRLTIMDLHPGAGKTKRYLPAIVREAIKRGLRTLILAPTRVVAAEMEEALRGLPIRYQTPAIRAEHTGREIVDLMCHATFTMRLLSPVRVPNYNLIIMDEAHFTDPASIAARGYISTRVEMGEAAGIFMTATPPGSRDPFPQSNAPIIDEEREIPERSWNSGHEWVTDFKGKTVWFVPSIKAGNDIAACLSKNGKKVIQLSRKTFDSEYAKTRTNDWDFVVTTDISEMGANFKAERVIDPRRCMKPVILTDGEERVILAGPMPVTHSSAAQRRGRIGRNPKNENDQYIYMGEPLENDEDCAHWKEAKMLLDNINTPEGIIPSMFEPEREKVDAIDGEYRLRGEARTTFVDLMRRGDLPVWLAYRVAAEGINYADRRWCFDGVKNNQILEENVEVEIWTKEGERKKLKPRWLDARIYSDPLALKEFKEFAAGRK
Chain of DENV NS2B/NS3 protease (P29990 1346-1475): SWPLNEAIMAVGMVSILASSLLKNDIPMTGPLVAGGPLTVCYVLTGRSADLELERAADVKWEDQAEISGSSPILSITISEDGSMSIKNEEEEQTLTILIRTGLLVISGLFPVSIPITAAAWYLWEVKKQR
Description: The DENV RdRp activity reporter system was used to determine the anti-DENV RdRp activity as described before. The NS3 protease reporter-based assay was used to determine the anti-DENV protease activity. The Huh-7 cells were transfected with DENV NS2B/NS3 protease reporter vector pEG(∆4B/5)NLuc carrying a specific DENV protease cleavage peptide sequences and the DENV protease expression vector. […] The supernatant was collected to analyze the nano luciferase (NLuc) activity by Nano-Glo® Luciferase Assay System following the manufacturer’s instructions (Promega, Madison, WI, USA).

SMILES	EC50 ([1]; Dengue virus) [µM]	CC50 at 72 h [3] [µM]	further results
C[C@@H](C[C@@H](O)[C@](C)(O)[C@H]1CC[C@@]2(O)C3=CC(=O)[C@@H]4C[C@@H](O)[C@@H](O)C[C@]4(C)[C@H]3CC[C@]12C)C(C)(C)O [Compound 4, 24-epi-makisterone A]	46.5 ± 0.59		anti-DENV-2 activity in words [1]: weak anti-DENV-2 activities
CC(C)(O)CCC(O)C(C)(O)C1CCC2(O)C3=CC(=O)C4C(O)CCCC4(C)C3CCC12C (centres unmarked) [Compound 1, palythone A]	54 ± 2.17		anti-DENV-2 activity in words [1]: weak anti-DENV-2 activities
O=c1c(O)c(-c2ccc(O)c(O)c2)oc2cc(O)cc(O)c12 [quercetin]			IC50, anti-DENV activity [2]: 35.7 µg/mL (≈ 118 µM)
C[C@@]1(O)[C@H](O)[C@@H](CO)O[C@H]1n1ccc(N)nc1=O [2′CMC, 2′-C-methylcytidine, reference compound]	13.23 ± 0.07	94.8 ± 4.15	SI, selectivity index, CC50/EC50 ([1]; CC50 (Huh-7) / EC50 (DENV-2)): >7.2
CC(=O)O[C@H]1C[C@@]2(C)[C@@H](C[C@H]1O)C(=O)C=C1[C@@H]2CC[C@]2(C)[C@@H]([C@@](C)(O)[C@H](O)CCC(C)(C)O)CC[C@@]12O [Compound 2, 20-hydroxyecdysone 2-acetate]	> 100	> 200	
CC(=O)OC1CC(C)(C)C(=C=CC(C)=CC=CC=CC=C(C)C=C2C=C(C=CC34OC3(C)CC(O)CC4(C)C)C(=O)O2)C(C)(O)C1 (centres unmarked) [Compound 9, peridinin]	4.5 ± 0.46	133 ± 3.21	IC50 ([1]; Dengue virus, DENV2, Huh-7, read-out: IC50, antiviral activity (abstract)): 4.5 ± 0.46 µg/mL (≈ 7.13 µM); EC50 [4]: 7.62 ± 0.17 µM; EC50 [5]: 5.84 ± 0.19 µM; EC50 [6]: 6.51 ± 0.3 µM; decrease of the viral titer as compared to mock-treatment [7]: 2 ± 0.6 log10; EC50 [8]: 8.5 ± 0.41 µM
CC(C)(O)CC[C@@H](O)[C@](C)(O)[C@H]1CC[C@@]2(O)C3=CC(=O)[C@@H]4CC[C@@H](O)C[C@]4(C)[C@H]3CC[C@]12C [Compound 3, 3-deoxy-20-hydroxyecdysone]	> 100	> 200	
